Assay results reported in patent US20060073121A1, “Spray formulation for pungency enhancement in Capsicum” (priority 2004, published 2006).

Test system: Capsicum frutescens and Capsicum annuum
Experiment: Comparative number of folds enhancement of phenyl propanoid intermediates and capsaicinoids by optimized elicitors
Type: in vivo
Experimental: (§1) The flowers of C. frutescens were sprayed with water, which was taken as control. The fruits of C. frutescens which received different treatments were harvested on 25, 30, 35 and 40 days after anthesis and extracted with 1:2 (w/v) of acetonitrile followed by in-vacuo evaporation and resuspension with 1 ml methanol. The extracted samples were centrifuged at 4000 rpm for 10 minutes. The samples were subjected to High Performance Liquid Chromatography for quantification of phenyl proponoid intermediates and major Capsaicinoids. The mobile phase of linear gradient of 0-100 % acetonitrile in water with pH 3.0 for 35 minutes and 100% was maintained for 2 minutes at 35th minute. The detection was at 236 nm and flow rate was maintained at 1 ml/min. C-18 column of 250×4.6 mm and 5-μm diameter was used. The reagent used was of HPLC grade. The intermediates of phenyl proponoid pathway (Phenylalanine, Cinnamic acid, Coumaric acid, Caffeic acid, Ferulic acid and Vanillylamine) and two major Capsaicinoids (Capsaicin and Dihydrdcapsaicin) were purchased from Sigma Co. A standard stock solution of 1 mg/ml was prepared in methanol. 5 and 10 μl of standards and samples was injected to HPLC for three times and the mean value was calculated. Standard deviation of samples was calculated according to Tukey's method.
as §1, with “C. annuum var Arka Lohit” for “C. frutescens”, “of Acetonitrile” for “of acetonitrile”, “of 0-100%” for “of 0-100 %”, “and Dihydrocapsaicin)” for “and Dihydrdcapsaicin)”

[1] = 35 days after anthesis, optimized concentration: biotic 0.5-1% w/v, abiotic 2.5 μM

SMILES | number of folds enhancement of Caffeic Acid [1] | number of folds enhancement of Capsaicin [1] | number of folds enhancement of Cinnamic Acid [1] | number of folds enhancement of Coumaric Acid [1] | number of folds enhancement of Dihydrocapsaicin [1] | number of folds enhancement of Ferulic Acid [1] | number of folds enhancement of Phenylalanine [1] | number of folds enhancement of Vanillylamine [1] | number of folds enhancement of Caffeic Acid (in vivo) | number of folds enhancement of Capsaicin (in vivo) | number of folds enhancement of Cinnamic Acid (in vivo) | number of folds enhancement of Coumaric Acid (in vivo) | number of folds enhancement of Dihydrocapsaicin (in vivo) | number of folds enhancement of Ferulic Acid (in vivo) | number of folds enhancement of Phenylalanine (in vivo) | number of folds enhancement of Vanillylamine (in vivo)
CC/C=C\CC1C(=O)CCC1CC(=O)OC (stereo not shown) [Methyl Jasmonate] | 1.63-3.79 folds | 1.65-1.88 folds | 1.42-3.79 folds | 1.25-3.51 folds | 1.41-1.68 folds | 1.59-2.43 folds | 1.36-1.52 folds | 1.68-1.77 folds |  |  |  |  |  |  |  | 
O=C([O-])c1ccccc1O.[Na+] [Salicylic Acid sodium salt, Salicylic acid sodium salt] |  |  |  |  |  |  |  |  | 1.45-1.75 folds | 1.26-1.58 folds | 1.36-2.50 folds | 1.28-1.67 folds | 1.11-1.32 folds | 1.11-1.28 folds | 1.02-1.44 folds | 1.26-1.28 folds
